Measured values: ChEMBL document CHEMBL1157905, “Synthesis and antibacterial activities of a novel alkylide: 3-O-(3-aryl-2-propargyl) and 3-O-(3-aryl-2-propenyl)clarithromycin derivatives” (2010)
Values after ≈ are worked out from the molar mass of the structure shown.

How the values were obtained:
Format in all cases: functional
Staphylococcus aureus [1] = assay: Antimicrobial activity against erythromycin-susceptible Staphylococcus aureus PU19 encoded by erm(A) gene
Staphylococcus aureus [2] = assay: Antimicrobial activity against erythromycin-susceptible Staphylococcus aureus PU32 encoded by erm(A) gene
Streptococcus pneumoniae [3] = assay: Antimicrobial activity against erythromycin-susceptible Streptococcus pneumoniae ATCC 49619
Streptococcus pneumoniae [4] = assay: Antimicrobial activity against erythromycin-resistant Streptococcus pneumoniae PU11 encoded by erm and mef gene
Streptococcus pneumoniae [5] = assay: Antimicrobial activity against erythromycin-resistant Streptococcus pneumoniae PU13 encoded by erm and mef gene
Staphylococcus aureus [6] = assay: Antimicrobial activity against erythromycin-susceptible Staphylococcus aureus ATCC 29213

SMILES | MIC (Staphylococcus aureus [1]) [µg/mL] | MIC (Staphylococcus aureus [2]) [µg/mL] | MIC (Streptococcus pneumoniae [3]) [µg/mL] | MIC (Streptococcus pneumoniae [4]) [µg/mL] | MIC (Streptococcus pneumoniae [5]) [µg/mL] | MIC (Staphylococcus aureus [6]) [µg/mL]
CC[C@H]1OC(=O)[C@H](C)[C@@H](O/C=C\Cc2cncc3ccccc23)[C@H](C)[C@@H](O[C@@H]2O[C@H](C)C[C@H](N(C)C)[C@H]2O)[C@](C)(OC)C[C@@H](C)/C(=N\OCc2ccccc2Cl)[C@H](C)[C@H]2OC(=O)O[C@@]21C | 64 (≈ 69.4 µM) | 32 (≈ 34.7 µM) | 0.25 (≈ 0.271 µM) | 32 (≈ 34.7 µM) | 32 (≈ 34.7 µM) | 8 (≈ 8.67 µM)
CC[C@H]1OC(=O)[C@H](C)[C@@H](OC/C=C/c2cncc3ccccc23)[C@H](C)[C@@H](O[C@@H]2O[C@H](C)C[C@H](N(C)C)[C@H]2O)[C@](C)(OC)C[C@@H](C)/C(=N\OCc2ccccc2Cl)[C@H](C)[C@H]2OC(=O)O[C@@]21C | 64 (≈ 69.4 µM) | 64 (≈ 69.4 µM) | 4 (≈ 4.34 µM) | 32 (≈ 34.7 µM) | 32 (≈ 34.7 µM) | 64 (≈ 69.4 µM)
CC[C@H]1OC(=O)[C@H](C)[C@@H](O[C@H]2C[C@@](C)(OC)[C@@H](O)[C@H](C)O2)[C@H](C)[C@@H](O[C@@H]2O[C@H](C)C[C@H](N(C)C)[C@H]2O)[C@](C)(O)C[C@@H](C)CN(C)[C@H](C)[C@@H](O)[C@]1(C)O [AZITHROMYCIN] | > 256 | 64 (≈ 85.4 µM) | 0.064 (≈ 0.0854 µM) | 128 (≈ 171 µM) | 128 (≈ 171 µM) | 0.5 (≈ 0.668 µM)
CC[C@H]1OC(=O)[C@H](C)[C@@H](O[C@H]2C[C@@](C)(OC)[C@@H](O)[C@H](C)O2)[C@H](C)[C@@H](O[C@@H]2O[C@H](C)C[C@H](N(C)C)[C@H]2O)[C@](C)(OC)C[C@@H](C)C(=O)[C@H](C)[C@@H](O)[C@]1(C)O [CLARITHROMYCIN] | > 256 | 128 (≈ 171 µM) | 0.032 (≈ 0.0428 µM) | 128 (≈ 171 µM) | 128 (≈ 171 µM) | 0.5 (≈ 0.668 µM)
